From patent US20100298141A1, “SUBSTITUTED PYRIDINE N-OXIDE HERBICIDES” (E. I. DU PONT DE NEMOURS AND COMPANY, priority 2007, published 2010)

Legend:
[1] = tested on: eastern black nightshade; experiment: Test C pre-/postemergence test; type: in vivo, Solanum ptycanthum; conditions: for Plant response rating, Nightshade: 31 g ai/ha, scale 0 to 100 (0 no effect, 100 complete control)
In short: (§1)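 Compounds in a non-phytotoxic solvent with surfactant applied preemergence to seeded pots and, at the same time, postemergence to plants 2–18 cm tall (1- to 4-leaf stage). Paddy tests: pots flooded to 3 cm, compound applied into the water, depth held throughout.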

[2] = tested on: green foxtail; experiment: Test C pre-/postemergence test; type: in vivo, Setaria viridis; conditions: for Plant response rating, Foxtail, Green: 31 g ai/ha, scale 0 to 100 (0 no effect, 100 complete control)
In short: as §1

[3] = tested on: morningglory; experiment: Test A pre-/postemergence greenhouse test; type: in vivo, Ipomoea spp.; conditions: for Plant response rating, Morningglory: 0 to 100 scale where 0 is no effect and 100 is complete control; for Morningglory plant response rating: 0 to 100 scale
In short: (§2)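 Pots of loam–sand soil sown with the test species are sprayed preemergence on the soil surface; emerged seedlings (1–2 leaves, 2–10 cm) are sprayed postemergence at the same time. The vehicle is a non-phytotoxic solvent mixture with surfactant. Injury is scored visually after ~10 d in greenhouse.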

[4] = tested on: woolly cupgrass; experiment: Test C pre-/postemergence test; type: in vivo, Eriochloa villosa; conditions: for Plant response rating, Cupgrass, Woolly: 31 g ai/ha, scale 0 to 100 (0 no effect, 100 complete control)
In short: as §1

[5] = tested on: wheat; experiment: Test C pre-/postemergence test; type: in vivo, Triticum aestivum; conditions: for Plant response rating, Wheat: 31 g ai/ha, scale 0 to 100 (0 no effect, 100 complete control)
In short: as §1

[6] = tested on: corn; experiment: Test C pre-/postemergence test; type: in vivo, Zea mays; conditions: for Plant response rating, Corn: 31 g ai/ha, scale 0 to 100 (0 no effect, 100 complete control)
In short: as §1

[7] = tested on: Goosegrass; experiment: Test C pre-/postemergence test; type: in vivo, Eleusin indica; conditions: for Plant response rating, Goosegrass: 31 g ai/ha, scale 0 to 100 (0 no effect, 100 complete control)
In short: as §1

[8] = tested on: common (oilseed) sunflower; experiment: Test C pre-/postemergence test; type: in vivo, Helianthus annuus; conditions: for Plant response rating, Sunflower: 31 g ai/ha, scale 0 to 100 (0 no effect, 100 complete control)
In short: as §1

[9] = tested on: duck salad; experiment: Test C flooded paddy test; type: in vivo, Heteranthera limosa; conditions: Flood
In short: (§3)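 Pots were flooded to 3 cm above the soil surface at treatment, compound applied directly to the paddy water, and that depth held throughout. Plants were kept in a greenhouse for 13 to 15 days, then visually rated against untreated controls.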

[10] = tested on: blackgrass; experiment: Test C pre-/postemergence test; type: in vivo, Alopecurus myosuroides; conditions: for Plant response rating, Blackgrass: 31 g ai/ha, scale 0 to 100 (0 no effect, 100 complete control)
In short: as §1

[11] = tested on: umbrella sedge; experiment: Test C flooded paddy test; type: in vivo, Cyperus difformis; conditions: Flood
In short: as §3

[12] = tested on: yellow nutsedge; experiment: Test C pre-/postemergence test; type: in vivo, Cyperus esculentus; conditions: for Plant response rating, Nutsedge, Yellow: 31 g ai/ha, scale 0 to 100 (0 no effect, 100 complete control)
In short: as §1

[13] = tested on: crabgrass; experiment: Test A pre-/postemergence greenhouse test; type: in vivo, Digitaria sanguinalis; conditions: for Plant response rating, Crabgrass, Large: 0 to 100 scale where 0 is no effect and 100 is complete control; for Crabgrass, Large plant response rating: 0 to 100 scale
In short: as §2

[14] = tested on: common ragweed; experiment: Test C pre-/postemergence test; type: in vivo, Ambrosia elation; conditions: for Plant response rating, Ragweed: 31 g ai/ha, scale 0 to 100 (0 no effect, 100 complete control)
In short: as §1

[15] = tested on: redroot pigweed; experiment: Test A pre-/postemergence greenhouse test; type: in vivo, Amaranthus retroflexus; conditions: for Plant response rating, Pigweed: 0 to 100 scale where 0 is no effect and 100 is complete control; for Pigweed plant response rating: 0 to 100 scale
In short: as §2

[16] = tested on: wild oat; experiment: Test C pre-/postemergence test; type: in vivo, Avena fatua; conditions: for Plant response rating, Oat, Wild: 31 g ai/ha, scale 0 to 100 (0 no effect, 100 complete control)
In short: as §1

[17] = tested on: Italian ryegrass; experiment: Test C pre-/postemergence test; type: in vivo, Lolium multiflorum; conditions: for Plant response rating, Ryegrass, Italian: 31 g ai/ha, scale 0 to 100 (0 no effect, 100 complete control)
In short: as §1

[18] = 62 g ai/ha, Preemergence, scale 0 to 100
[19] = 125 g ai/ha, preemergence, scale 0 (no effect) to 100 (complete control)
[20] = preemergence, 250 g ai/ha, scale 0 (no effect) to 100 (complete control)
[21] = Postemergence, 500 g ai/ha, 0 is no effect, 100 is complete control
[22] = Preemergence, 125 g ai/ha, 0 no effect, 100 complete control
[23] = Preemergence, 500 g ai/ha, 0 no effect, 100 complete control
[24] = 62 g ai/ha, scale 0 to 100 (0 no effect, 100 complete control)
[25] = 250 g ai/ha, scale 0 to 100, 0 no effect, 100 complete control, 13 to 15 days

## C#CCOc1c(CS(=O)(=O)c2cccc[n+]2[O-])c(C(F)(F)F)nn1C [Compound 103]
[1]; [18]
  Nightshade plant response rating: 90
[1]; [19]
  Nightshade plant response rating: 90
[1]; Preemergence
  Plant response rating, Nightshade: 90
[1]; [20]
  Nightshade plant response rating: 98
[2]; [18]
  Foxtail, Green plant response rating: 98
[2]; [19]
  Foxtail, Green plant response rating: 100
[2]; Preemergence
  Plant response rating, Foxtail, Green: 60
[2]; [20]
  Foxtail, Green plant response rating: 100
[3]; Postemergence, 125 g ai/ha
  Plant response rating, Morningglory: 20
[3]; [21]
  Morningglory plant response rating: 70
[3]; [22]
  Morningglory plant response rating: 0
[3]; [23]
  Morningglory plant response rating: 70
[4]; [18]
  Cupgrass, Woolly plant response rating: 30
[4]; [19]
  Cupgrass, Woolly plant response rating: 85
[4]; Preemergence
  Plant response rating, Cupgrass, Woolly: 0
[4]; [20]
  Cupgrass, Woolly plant response rating: 100
[5]; [18]
  Wheat plant response rating: 0
[5]; [19]
  Wheat plant response rating: 25
[5]; Preemergence
  Plant response rating, Wheat: 0
[5]; [20]
  Wheat plant response rating: 98
[6]; [18]
  Corn plant response rating: 0
[6]; [19]
  Corn plant response rating: 65
[6]; Preemergence
  Plant response rating, Corn: 0
[6]; [20]
  Corn plant response rating: 95
[7]; [18]
  Goosegrass plant response rating: 100
[7]; [19]
  Goosegrass plant response rating: 100
[7]; Preemergence
  Plant response rating, Goosegrass: 50
[7]; [20]
  Goosegrass plant response rating: 100
[8]; [18]
  Sunflower plant response rating: 35
[8]; [19]
  Sunflower plant response rating: 50
[8]; Preemergence
  Plant response rating, Sunflower: 35
[8]; [20]
  Sunflower plant response rating: 90
[9]; [24]
  Plant response rating, Ducksalad: 20
[9]; [25]
  Plant response rating, Ducksalad: 70
[10]; [18]
  Blackgrass plant response rating: 100
[10]; [19]
  Blackgrass plant response rating: 100
[10]; Preemergence
  Plant response rating, Blackgrass: 100
[10]; [20]
  Blackgrass plant response rating: 100
[11]; [24]
  Plant response rating, Sedge, Umbrella: 0
[11]; [25]
  Plant response rating, Sedge, Umbrella: 55
[12]; [18]
  Nutsedge, Yellow plant response rating: 70
[12]; [19]
  Nutsedge, Yellow plant response rating: 85
[12]; Preemergence
  Plant response rating, Nutsedge, Yellow: 0
[12]; [20]
  Nutsedge, Yellow plant response rating: 85
[13]; Postemergence, 125 g ai/ha
  Plant response rating, Crabgrass, Large: 70
[13]; [21]
  Crabgrass, Large plant response rating: 90
[13]; [22]
  Crabgrass, Large plant response rating: 70
[13]; [23]
  Crabgrass, Large plant response rating: 100
[14]; [18]
  Ragweed plant response rating: 0
[14]; [19]
  Ragweed plant response rating: 80
[14]; Preemergence
  Plant response rating, Ragweed: 0
[14]; [20]
  Ragweed plant response rating: 85
[15]; Postemergence, 125 g ai/ha
  Plant response rating, Pigweed: 30
[15]; [21]
  Pigweed plant response rating: 60
[15]; [22]
  Pigweed plant response rating: 60
[15]; [23]
  Pigweed plant response rating: 100
[16]; [18]
  Oat, Wild plant response rating: 60
[16]; [19]
  Oat, Wild plant response rating: 100
[16]; Preemergence
  Plant response rating, Oat, Wild: 40
[16]; [20]
  Oat, Wild plant response rating: 100
[17]; [18]
  Ryegrass, Italian plant response rating: 50
[17]; [19]
  Ryegrass, Italian plant response rating: 55
[17]; Preemergence
  Plant response rating, Ryegrass, Italian: 0
[17]; [20]
  Ryegrass, Italian plant response rating: 60

## Cc1cc[n+]([O-])c(S(=O)(=O)Cc2c(C(F)(F)F)nn(C)c2OC(C)C(F)(F)F)c1 (centres unmarked) [Compound 96]
[1]; [18]
  Nightshade plant response rating: 85
[1]; [19]
  Nightshade plant response rating: 95
[1]; Preemergence
  Plant response rating, Nightshade: 75
[1]; [20]
  Nightshade plant response rating: 100
[2]; [18]
  Foxtail, Green plant response rating: 95
[2]; [19]
  Foxtail, Green plant response rating: 98
[2]; Preemergence
  Plant response rating, Foxtail, Green: 95
[2]; [20]
  Foxtail, Green plant response rating: 100
[3]; Postemergence, 125 g ai/ha
  Plant response rating, Morningglory: 10
[3]; [21]
  Morningglory plant response rating: 70
[3]; [22]
  Morningglory plant response rating: 20
[3]; Preemergence, 500 g ai/ha
  Plant response rating, Morningglory: 80
[4]; [18]
  Cupgrass, Woolly plant response rating: 70
[4]; [19]
  Cupgrass, Woolly plant response rating: 95
[4]; Preemergence
  Plant response rating, Cupgrass, Woolly: 50
[4]; [20]
  Cupgrass, Woolly plant response rating: 98
[5]; [18]
  Wheat plant response rating: 0
[5]; [19]
  Wheat plant response rating: 45
[5]; Preemergence
  Plant response rating, Wheat: 0
[5]; [20]
  Wheat plant response rating: 45
[6]; [18]
  Corn plant response rating: 0
[6]; [19]
  Corn plant response rating: 35
[6]; Preemergence
  Plant response rating, Corn: 0
[6]; [20]
  Corn plant response rating: 60
[7]; [18]
  Goosegrass plant response rating: 100
[7]; [19]
  Goosegrass plant response rating: 100
[7]; Preemergence
  Plant response rating, Goosegrass: 95
[7]; [20]
  Goosegrass plant response rating: 100
[8]; [18]
  Sunflower plant response rating: 0
[8]; [19]
  Sunflower plant response rating: 0
[8]; Preemergence
  Plant response rating, Sunflower: 0
[8]; [20]
  Sunflower plant response rating: 30
[9]; [24]
  Plant response rating, Ducksalad: 0
[9]; [25]
  Plant response rating, Ducksalad: 55
[10]; [18]
  Blackgrass plant response rating: 100
[10]; [19]
  Blackgrass plant response rating: 100
[10]; Preemergence
  Plant response rating, Blackgrass: 65
[10]; [20]
  Blackgrass plant response rating: 100
[11]; [24]
  Plant response rating, Sedge, Umbrella: 0
[11]; [25]
  Plant response rating, Sedge, Umbrella: 75
[12]; [18]
  Nutsedge, Yellow plant response rating: 80
[12]; [19]
  Nutsedge, Yellow plant response rating: 95
[12]; Preemergence
  Plant response rating, Nutsedge, Yellow: 40
[12]; [20]
  Nutsedge, Yellow plant response rating: 95
[13]; Postemergence, 125 g ai/ha
  Plant response rating, Crabgrass, Large: 40
[13]; [21]
  Crabgrass, Large plant response rating: 90
[13]; [22]
  Crabgrass, Large plant response rating: 80
[13]; Preemergence, 500 g ai/ha
  Plant response rating, Crabgrass, Large: 100
[14]; [18]
  Ragweed plant response rating: 20
[14]; [19]
  Ragweed plant response rating: 100
[14]; Preemergence
  Plant response rating, Ragweed: 20
[14]; [20]
  Ragweed plant response rating: 100
[15]; Postemergence, 125 g ai/ha
  Plant response rating, Pigweed: 30
[15]; [21]
  Pigweed plant response rating: 80
[15]; [22]
  Pigweed plant response rating: 90
[15]; Preemergence, 500 g ai/ha
  Plant response rating, Pigweed: 90
[16]; [18]
  Oat, Wild plant response rating: 80
[16]; [19]
  Oat, Wild plant response rating: 95
[16]; Preemergence
  Plant response rating, Oat, Wild: 70
[16]; [20]
  Oat, Wild plant response rating: 98
[17]; [18]
  Ryegrass, Italian plant response rating: 98
[17]; [19]
  Ryegrass, Italian plant response rating: 100
[17]; Preemergence
  Plant response rating, Ryegrass, Italian: 60
[17]; [20]
  Ryegrass, Italian plant response rating: 100
